Assay results: US20230167073A1 (Teijin Pharma Limited, priority 2020, published 2023)

biological target: T1, Human TRPC6 (Homo sapiens, UniProt Q9Y210); assay: Evaluation of TRPC6 channel inhibitory activity (1), FLIPR Calcium 5 Assay Kit, OAG stimulation (Compound Nos. 1-1293); type: cell-based; details: Human TRPC6 stably-expressing cells, OAG 30 μM, FLIPR Calcium 5 Assay Kit; read-out: Inhibitory activity (pIC50 class) (converted)
T1 construct: expressed in transfected cells
T1 sequence (Q9Y210 1-931): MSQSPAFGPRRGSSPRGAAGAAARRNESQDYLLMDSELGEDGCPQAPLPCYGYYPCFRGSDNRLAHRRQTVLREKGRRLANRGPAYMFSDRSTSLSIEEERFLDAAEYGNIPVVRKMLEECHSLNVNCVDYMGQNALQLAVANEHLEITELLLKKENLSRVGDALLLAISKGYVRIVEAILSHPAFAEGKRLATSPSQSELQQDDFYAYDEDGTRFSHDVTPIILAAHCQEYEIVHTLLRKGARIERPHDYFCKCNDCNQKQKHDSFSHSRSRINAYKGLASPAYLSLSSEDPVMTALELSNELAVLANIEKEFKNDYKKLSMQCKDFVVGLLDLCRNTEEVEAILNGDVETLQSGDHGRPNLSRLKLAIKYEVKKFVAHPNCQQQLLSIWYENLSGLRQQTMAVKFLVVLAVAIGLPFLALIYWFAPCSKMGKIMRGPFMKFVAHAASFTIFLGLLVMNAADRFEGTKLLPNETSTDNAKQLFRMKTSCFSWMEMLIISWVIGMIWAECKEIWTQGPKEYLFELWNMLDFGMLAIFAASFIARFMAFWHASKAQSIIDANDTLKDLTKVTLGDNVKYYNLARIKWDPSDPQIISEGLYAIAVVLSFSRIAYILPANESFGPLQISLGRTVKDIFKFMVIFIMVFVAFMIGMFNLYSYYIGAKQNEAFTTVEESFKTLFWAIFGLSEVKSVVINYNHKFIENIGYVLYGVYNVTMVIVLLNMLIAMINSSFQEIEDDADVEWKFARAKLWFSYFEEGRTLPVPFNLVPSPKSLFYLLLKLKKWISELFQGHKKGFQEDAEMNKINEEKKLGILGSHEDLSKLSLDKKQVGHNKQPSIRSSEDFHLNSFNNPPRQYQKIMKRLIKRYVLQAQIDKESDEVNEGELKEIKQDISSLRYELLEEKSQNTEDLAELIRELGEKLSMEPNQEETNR
How it was run: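 Cells stably expressing human TRPC6, plated 24 h before, were loaded 30 min with Calcium 5 dye plus probenecid in HEPES-HBSS. Compound was added 20 min before OAG (30 μM final) and fluorescence tracked on FLIPR. Inhibition normalised to no-compound and no-compound/no-OAG wells; pIC50 from four-parameter fit, reported as +/++/+++ categories.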

SMILES | IC50
Cn1nc(C2CC2)cc1Oc1cc(F)ccc1-c1ccc(CN)cn1 [compound 1016, [6-[2-(5-cyclopropyl-2-methylpyrazol-3-yl)oxy-4-fluorophenyl]pyridin-3 - yl]methanamine] | 10 to 1000 nM
Cc1cc(Oc2cc(F)ccc2-c2ncc(CCN)cn2)cc(N2CCOCC2)n1 [compound 978, 2-[2-[4-fluoro-2-(2-methyl-6-morpholin-4-ylpyridin-4-yl)oxyphenyl]pyrimidin-5-yl]ethanamine] | < 10 nM
Cc1ccc(-c2cc(Oc3cc(C#N)ccc3-c3ncc(CCN)cn3)cc(C)n2)nn1 [compound 466, 4-[5-(2-aminoethyl)pyrimidin-2-yl]-3-[2-methyl-6-(6-methylpyridazin-3-yl)pyridin-4-yl]oxybenzonitrile] | > 1000 nM
Cn1nc(-c2ccncn2)cc1Oc1cc(C#N)ccc1-c1ncc(CN)cn1 [compound 932, 4-[5-(aminomethyl)pyrimidin-2-yl]-3-(2-methyl-5-pyrimidin-4-ylpyrazol-3-yl)oxybenzonitrile] | < 10 nM
CC(C)Cn1cc(C(=O)c2cc(C#N)ccc2-c2ncc(CCN)cn2)cn1 [compound 1060, 4-[5-(2-aminoethyl)pyrimidin-2-yl]-3-[1-(2-methylpropyl)pyrazole-4-carbonyl]benzonitrile] | < 10 nM
Cn1nc(C2CC2)cc1Oc1cc(C#N)ccc1-c1cc(OCCCN)ccn1 [compound 585, 4-[4-(3-aminopropoxy)pyridin-2-yl]-3-(5-cyclopropyl-2-methylpyrazol-3-yl)oxybenzonitrile] | > 1000 nM
COCCOc1cc(Oc2cc(C#N)ccc2-c2ccc(CCN)cc2)nc(C)n1 [Compound 48, 4-[4-(2-aminoethyl)phenyl]-3-[6-(2-methoxyethoxy)-2-methylpyrimidin-4-yl]oxybenzonitrile] | 10 to 1000 nM
CCOc1cc(Oc2cc(C#N)ccc2-c2ccc([C@H](O)CN)cn2)n(C)n1 [compound 399, 4-[5-[(1S)-2-amino-1-hydroxyethyl]pyridin-2-yl]-3-(5-ethoxy-2-methylpyrazol-3-yl)oxybenzonitrile] | < 10 nM
COCCOC(CN)c1ccc(-c2ccc(C#N)cc2Oc2cc(N3CCOCC3)nc(C)n2)cc1 (centres unmarked) [Compound 64, 4-[4-[2-amino-1-(2-methoxyethoxy)ethyl]phenyl]-3-(2-methyl-6-morpholin-4-ylpyrimidin-4-yl)oxybenzonitrile] | > 1000 nM
Cn1nc(C(F)(F)F)cc1Oc1cc(C#N)ccc1-c1ncc(CN)cn1 [Compound No. 811, 4-[5-(Aminomethyl)pyrimidin-2-yl]-3-[2-methyl-5-(trifluoromethyl)pyrazol-3-yl]oxybenzonitrile] | < 10 nM
Cc1cc(Oc2cc(C#N)ccc2-c2ccc(CC(C)(C)N)cn2)cc(N2CCOCC2)n1 [compound 333, 4-[5-(2-amino-2-methylpropyl)pyridin-2-yl]-3-(2-methyl-6-morpholin-4-ylpyridin-4-yl)oxybenzonitrile] | < 10 nM
CNc1cc(C(=O)c2cc(C#N)ccc2-c2ccc(CCN)cn2)n(C)n1 [compound 1075, 4-[5-(2-aminoethyl)pyridin-2-yl]-3-[2-methyl-5-(methylamino)pyrazole-3-carbonyl]benzonitrile] | < 10 nM
N#Cc1ccc(-c2ncc(CCN)cn2)c(C(=O)c2cnn(CC3CC3)c2)c1 [compound 1046, 4-[5-(2-aminoethyl)pyrimidin-2-yl]-3-[1-(cyclopropylmethyl)pyrazole-4-carbonyl]benzonitrile] | < 10 nM
N#Cc1ccc(-c2ncc(CCN)cn2)c(C(=O)c2nnc(N3CCOCC3)o2)c1 [compound 1092, 4-[5-(2-aminoethyl)pyrimidin-2-yl]-3-(5-morpholin-4-yl-1,3,4-oxadiazole-2-carbonyl)benzonitrile] | 10 to 1000 nM
Cn1nc(C(C)(C)C)cc1Oc1cc(C#N)ccc1-c1ncc([C@H](O)CN)cn1 [compound 406, 4-[5-[(1S)-2-amino-1-hydroxyethyl]pyrimidin-2-yl]-3-(5-tert-butyl-2-methylpyrazol-3-yl)oxybenzonitrile] | < 10 nM
Cn1nc(C2CCOC2)cc1Oc1cc(C#N)ccc1-c1ccc(CCN)cn1 (centres unmarked) [compound 496, 4-[5-(2-aminoethyl)pyridin-2-yl]-3-[2-methyl-5-(oxolan-3-yl)pyrazol-3-yl]oxybenzonitrile] | < 10 nM

SMILES | IC50
Cc1nc(OCC(F)F)cc(Oc2cc(C#N)ccc2-c2ncc(CCN)cn2)n1 [compound 891, 4-[5-(2-aminoethyl)pyrimidin-2-yl]-3-[6-(2,2-difluoroethoxy)-2-methylpyrimidin-4-yl]oxybenzonitrile] | 10 to 1000 nM
N#Cc1ccc(-c2ccc(CCN)cc2)c(Oc2cnnc(O[C@H]3CCC[C@H]3O)c2)c1 [Compound 123, 4-[4-(2-aminoethyl)phenyl]-3-[6-[(1S,2R)-2-hydroxycyclopentyl]oxypyridazin-4-yl]oxybenzonitrile] | 10 to 1000 nM
Cc1nc(Sc2cc(C#N)ccc2-c2ncc(CN)cn2)cc(N(C)C)n1 [compound 1263, 4-[5-(aminomethyl)pyrimidin-2-yl]-3-[6-(dimethylamino)-2-methylpyrimidin-4-yl]sulfanylbenzonitrile] | > 1000 nM
CCc1c(Oc2cc(C#N)ccc2-c2ncc(CCN)cn2)cnn1CC(C)C [compound 954, 4-[5-(2-aminoethyl)pyrimidin-2-yl]-3-[5-ethyl-1-(2-methylpropyl)pyrazol-4-yl]oxybenzonitrile] | 10 to 1000 nM
Cc1nc(CNC(C)C)cn1Cc1cc(C#N)ccc1-c1ncc(CCN)cn1 [compound 1181, 4-[5-(2-aminoethyl)pyrimidin-2-yl]-3-[[2-methyl-4-[(propan-2-ylamino)methyl]imidazol-1-yl]methyl]benzonitrile] | > 1000 nM
CC(C)Cn1cc(Cc2cc(F)ccc2-c2ncc(CCN)cn2)cn1 [compound 1222, 2-[2-[4-fluoro-2-[[1-(2-methylpropyl)pyrazol-4-yl]methyl]phenyl]pyrimidin-5-yl]ethanamine] | 10 to 1000 nM
Cc1nc(-c2cncc(F)c2)cn1Cc1cc(C#N)ccc1-c1ncc(CCN)cn1 [compound 1194, 4-[5-(2-aminoethyl)pyrimidin-2-yl]-3-[[4-(5-fluoropyridin-3-yl)-2-methylimidazol-1-yl]methyl]benzonitrile] | > 1000 nM
Cc1nc(Oc2cc(C#N)ccc2-c2ccc(C(CN)c3cccc(F)c3)cc2)cc(N2CCOCC2)n1 (centres unmarked) [Compound 61, 4-[4-[2-amino-1-(3-fluorophenyl)ethyl]phenyl]-3-(2-methyl-6-morpholin-4-ylpyrimidin-4-yl)oxybenzonitrile] | > 1000 nM
CC(C)n1nc(C2CC2)cc1Oc1cc(C#N)ccc1-c1ncc([C@H](O)CN)cn1 [compound 408, 4-[5-[(1S)-2-amino-1-hydroxyethyl]pyrimidin-2-yl]-3-(5-cyclopropyl-2-propan-2-ylpyrazol-3-yl)oxybenzonitrile] | 10 to 1000 nM
Cn1nc(-c2cncc(F)c2)cc1Oc1cc(C#N)ccc1-c1ncc(CN)cn1 [compound 928, 4-[5-(aminomethyl)pyrimidin-2-yl]-3-[5-(5-fluoropyridin-3-yl)-2-methylpyrazol-3-yl]oxybenzonitrile] | 10 to 1000 nM
Cc1nn(-c2ccccn2)cc1Cc1cc(C#N)ccc1-c1ccc(CCN)cn1 [compound 1203, 4-[5-(2-aminoethyl)pyridin-2-yl]-3-[(3-methyl-1-pyridin-2-ylpyrazol-4-yl)methyl]benzonitrile] | < 10 nM
Cn1nc(C2CC2)cc1Oc1cc(C#N)ccc1-c1cccc(CN)n1 [compound 480, 4-[6-(aminomethyl)pyridin-2-yl]-3-(5-cyclopropyl-2-methylpyrazol-3-yl)oxybenzonitrile] | > 1000 nM
N#Cc1ccc(-c2ccc(CCN)cn2)c(Cn2cnc(-c3ccccn3)c2)c1 [compound 1160, 4-[5-(2-aminoethyl)pyridin-2-yl]-3-[(4-pyridin-2-ylimidazol-1-yl)methyl]benzonitrile] | > 1000 nM
CC(C)Cn1cc(Cc2cc(F)ccc2-c2ncc(CN)cn2)cn1 [compound 1223, [2-[4-fluoro-2-[[1-(2-methylpropyl)pyrazol-4-yl]methyl]phenyl]pyrimidin-5-yl]methanamine] | > 1000 nM
CC(C)(C)OCCOc1cc(Oc2cc(C#N)ccc2-c2ccc(CCN)cc2)cnn1 [Compound 127, 4-[4-(2-aminoethyl)phenyl]-3-[6-[2-[(2-methylpropan-2-yl)oxy]ethoxy]pyridazin-4-yl]oxybenzonitrile] | > 1000 nM
N#Cc1ccc(-c2ncc(CN)cn2)c(Sc2nnc(N3CCOCC3)s2)c1 [compound 1271, 4-[5-(aminomethyl)pyrimidin-2-yl]-3-[(5-morpholin-4-yl-1,3,4-thiadiazol-2-yl)sulfanyl]benzonitrile] | > 1000 nM
